Among the test systems are OVCAR-5; K562; CCRF-CEM; RPMI-8226; CAKI-1; OVCAR-4; SR; NCI-H522; SN12C; HT-29; SW-620; SNB-19; COLO 205; SF-295; Hs-578T; BT-549; PC-3; UACC-257; DU-145; LOX IMVI.
Common to all, as to experiment: DTP human tumour cell line panel, 48 h

We go through ten compounds from ChEMBL document CHEMBL1201862, “PubChem BioAssay data set” (2004).

SMILES strings stand for the structures.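 Where inhibition never reached the appropriate level, the endpoint shown equals the highest concentration tested. Otherwise, values were interpolated linearly from a five-concentration, 48-hour dose response in 96-well plates. GI50 = concentration required for 50% inhibition of growth.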 The source made the active and inactive calls. Rule as the data show it: active = GI50 up to about 1.1 µM and inactive = higher.

A word on the GI50: it is the concentration that inhibits growth by half.

Turning to `COC12C=CC(C=C1C#N)CC2.COC12C=CC(CC1)CC2=O` (configuration not stated), the GI50 with OVCAR-5, in the assay with K562, in the assay with CCRF-CEM, with RPMI-8226, in the assay on CAKI-1 and in the assay with OVCAR-4 was > 100 µM (inactive) throughout. Besides, the GI50 in the assay on SR, with NCI-H522, with SN12C, in the assay on HT-29, in the assay with SW-620 and in the assay on SNB-19 was > 100 µM (inactive) in each case. The GI50 with COLO 205, in the assay with SF-295, in the assay with Hs-578T, in the assay with BT-549, in the assay on PC-3 and with UACC-257 was > 100 µM (inactive) in each case. The GI50 in the assay with DU-145 is > 100 µM (inactive).

As to `O=S(=O)(c1ccccc1)c1cccc2c1NCCC2`, the GI50 was > 100 µM (inactive) in the assay with OVCAR-5; 35.6 µM (inactive) in the assay with K562; 46.8 µM (inactive) with CCRF-CEM; 56.1 µM (inactive) in the assay with RPMI-8226; 27.9 µM (inactive) in the assay with CAKI-1; > 100 µM (inactive) with OVCAR-4. Also, the GI50 in the assay with LOX IMVI was 35.6 µM (inactive); in the assay with SR, 38.3 µM (inactive); with SN12C, 42.7 µM (inactive); in the assay with HT-29 it was 37.8 µM (inactive); in the assay with SW-620, 40.7 µM (inactive); in the assay on SNB-19, 39.2 µM (inactive). In addition, the GI50 in the assay with COLO 205 was > 10 µM (inactive); with SF-295, 31 µM (inactive); in the assay with Hs-578T, 52.1 µM (inactive); in the assay on BT-549 it was 20.8 µM (inactive); in the assay on PC-3, 31.1 µM (inactive); in the assay on UACC-257, 23.6 µM (inactive). Further, the GI50 in the assay on DU-145 is 59.4 µM (inactive).

For the compound `COC(=O)c1ccc(C(=O)NC(Cc2ccc(Oc3cc(CC(NC(=O)c4ccccc4C(=O)OC)C(=O)OC)ccc3OC)cc2)C(=O)OC)cc1` (configuration not stated), the GI50 in the assay with OVCAR-5, in the assay with K562, in the assay with CCRF-CEM, in the assay on RPMI-8226, in the assay with CAKI-1 and in the assay with OVCAR-4 was > 100 µM (inactive) each time. The GI50 is > 100 µM (inactive) in the assay with LOX IMVI; > 100 µM (inactive) with SR; > 100 µM (inactive) in the assay on SN12C; > 100 µM (inactive) in the assay on HT-29; > 100 µM (inactive) in the assay with SW-620; 31.6 µM (inactive) in the assay on SNB-19. The GI50 in the assay with COLO 205 was > 100 µM (inactive); with SF-295, 43.9 µM (inactive); in the assay on Hs-578T, 4.21 µM (inactive); with BT-549 it was 74.8 µM (inactive); with PC-3 it was > 100 µM (inactive); in the assay on UACC-257, > 100 µM (inactive). In the assay on DU-145, the GI50 was > 100 µM (inactive).

Take `COc1ccc2oc(=O)c(-c3csc(-c4ccccc4)n3)cc2c1`: the GI50 in the assay with OVCAR-5 was > 100 µM (inactive); in the assay on K562 it was > 100 µM (inactive); in the assay with CCRF-CEM, > 100 µM (inactive); in the assay with RPMI-8226 it was 87.3 µM (inactive); with CAKI-1, > 100 µM (inactive); in the assay on OVCAR-4 it was 31 µM (inactive). In addition, the GI50 is 54.8 µM (inactive) with LOX IMVI; > 100 µM (inactive) in the assay with SR; 55.1 µM (inactive) in the assay with HT-29; 57.7 µM (inactive) in the assay on SW-620; 20.5 µM (inactive) with SNB-19; > 100 µM (inactive) in the assay with COLO 205. The GI50 in the assay on SF-295 was 22.8 µM (inactive); in the assay with Hs-578T, 37.8 µM (inactive); in the assay with BT-549, 21.4 µM (inactive); with PC-3, 89.5 µM (inactive); in the assay on UACC-257 it was > 100 µM (inactive); in the assay on DU-145 it was > 100 µM (inactive).

For `C[C@]12CC(c3ccccc3O1)C(C(=O)Nc1nc(C34CC5CC(CC(C5)C3)C4)cs1)C(=O)N2` (some centres not stated), the GI50 in the assay on OVCAR-5 is > 100 µM (inactive); with K562 it was > 100 µM (inactive); in the assay on CCRF-CEM it was 89.1 µM (inactive); in the assay with RPMI-8226 it was > 100 µM (inactive); with CAKI-1, > 100 µM (inactive); in the assay on OVCAR-4 it was > 100 µM (inactive). For the same compound, the GI50 with LOX IMVI, with SR, with SN12C, with HT-29, with SW-620 and in the assay on SNB-19 was > 100 µM (inactive) each time. Also, the GI50 with COLO 205, in the assay on Hs-578T, with BT-549, in the assay on PC-3, in the assay with UACC-257 and in the assay with DU-145 was > 100 µM (inactive) throughout.

As to `O=C(O)C(Cc1cc(I)c(O)c(I)c1)C1CCCCC1` (configuration not stated), the GI50 in the assay on OVCAR-5 is 49.2 µM (inactive); with K562 it was 66.2 µM (inactive); in the assay with CCRF-CEM, 51.1 µM (inactive); in the assay on CAKI-1, 30.6 µM (inactive); in the assay on OVCAR-4, 59.6 µM (inactive); in the assay on LOX IMVI it was 34 µM (inactive). Also, the GI50 in the assay with SR was 33.1 µM (inactive); in the assay with NCI-H522, 29.3 µM (inactive); in the assay with SN12C it was 32.2 µM (inactive); in the assay with HT-29 it was 30.8 µM (inactive); in the assay on SW-620, 58.9 µM (inactive); in the assay on SNB-19, 35.6 µM (inactive). Besides, the GI50 in the assay with SF-295 was 35.6 µM (inactive); in the assay with Hs-578T, 27.9 µM (inactive); with BT-549, 34.5 µM (inactive); in the assay on PC-3, 18.3 µM (inactive); with UACC-257, 45.3 µM (inactive); with DU-145, 33 µM (inactive).

Take `CC1(C)OC[C@@]2([C@@H]3CC[C@@H](C3)C2(C)C)N1O`: the GI50 in the assay with OVCAR-5 is > 100 µM (inactive); with K562 it was > 100 µM (inactive); with CCRF-CEM, > 100 µM (inactive); in the assay with RPMI-8226, 79.4 µM (inactive); in the assay with CAKI-1, > 100 µM (inactive); in the assay on OVCAR-4, > 100 µM (inactive). In addition, the GI50 in the assay on LOX IMVI is 92 µM (inactive); in the assay on NCI-H522 it was 62.1 µM (inactive); in the assay with SN12C it was > 100 µM (inactive); in the assay on HT-29, > 100 µM (inactive); in the assay on SW-620, > 100 µM (inactive); with SNB-19, > 100 µM (inactive). Also, the GI50 in the assay on COLO 205 was > 100 µM (inactive); in the assay with SF-295, > 100 µM (inactive); in the assay with Hs-578T it was > 100 µM (inactive); in the assay with BT-549 it was > 100 µM (inactive); in the assay with PC-3 it was 55.8 µM (inactive); in the assay with UACC-257, > 100 µM (inactive). For the same compound, the GI50 in the assay with DU-145 was > 100 µM (inactive).

For the compound `FC(F)(F)c1cnc(N/N=C(/c2ccccc2)c2ccccn2)c(Cl)c1`, the GI50 in the assay on OVCAR-5 was 6.87 µM (inactive); in the assay on K562, 4.03 µM (inactive); in the assay with CCRF-CEM, 2.4 µM (inactive); with RPMI-8226 it was 2.97 µM (inactive); in the assay on CAKI-1 it was 5.85 µM (inactive); in the assay with OVCAR-4, 7.76 µM (inactive). The GI50 with SR was 2.76 µM (inactive); in the assay with NCI-H522 it was 1.9 µM (inactive); in the assay with SN12C it was 7.52 µM (inactive); in the assay with HT-29, 0.31 µM (active); in the assay on SW-620, 3.02 µM (inactive); with SNB-19, 9.33 µM (inactive). Also, the GI50 in the assay on COLO 205 was 2.51 µM (inactive); with SF-295 it was 3.4 µM (inactive); in the assay with Hs-578T it was 9.14 µM (inactive); with BT-549, 11.1 µM (inactive); in the assay on PC-3 it was 5.3 µM (inactive); with UACC-257, 2.49 µM (inactive). Besides, the GI50 with DU-145 was 6.64 µM (inactive).

For `Cc1cn(C2CC(N=[N+]=[N-])C(CO)O2)c(=O)n(CCCCO)c1=O` (configuration not stated), the GI50 with OVCAR-5, in the assay with K562, in the assay with CCRF-CEM, in the assay with RPMI-8226, in the assay with CAKI-1 and with OVCAR-4 was > 100 µM (inactive) throughout. In addition, the GI50 in the assay with LOX IMVI, in the assay on NCI-H522, in the assay with SN12C, with HT-29, with SW-620 and in the assay with SNB-19 was > 100 µM (inactive) each time. Further, the GI50 with COLO 205, with SF-295, in the assay on Hs-578T, with BT-549, with PC-3 and in the assay on UACC-257 was > 100 µM (inactive) each time. Moreover, in the assay on DU-145, the GI50 is > 100 µM (inactive).

On to `CSc1ccsc1-c1sc(-c2cc(SC)c(-c3sc(-c4cc(SC)c(-c5sccc5SC)s4)cc3SC)s2)cc1SC`, for which the GI50 with OVCAR-5 was > 100 µM (inactive); with K562, 46.8 µM (inactive); in the assay on CCRF-CEM, 4.26 µM (inactive); in the assay on RPMI-8226, 3.44 µM (inactive); with CAKI-1 it was 17.2 µM (inactive); with OVCAR-4, > 100 µM (inactive). The GI50 is > 100 µM (inactive) in the assay with LOX IMVI; 18.3 µM (inactive) with NCI-H522; 42.3 µM (inactive) in the assay with SN12C; 93.5 µM (inactive) in the assay on HT-29; 21.5 µM (inactive) in the assay on SW-620; > 100 µM (inactive) in the assay with SNB-19. Moreover, the GI50 was 33.4 µM (inactive) in the assay on COLO 205; > 100 µM (inactive) in the assay on SF-295; > 100 µM (inactive) in the assay with Hs-578T; 64.3 µM (inactive) in the assay on BT-549; 76.4 µM (inactive) with PC-3; > 100 µM (inactive) with UACC-257. Besides, the GI50 in the assay with DU-145 was 96.8 µM (inactive).
